pIC50: −log10 of the molar value.
Tests used:
Experiment in all cases: cells
[1] = test system: COR-L105; type: functional, cell-based, Homo sapiens; conditions: Homo sapiens, COR-L105;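 note: cell growth inhibition determined with a viability assay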
Description: SANGER: Inhibition of human COR-L105 cell growth in a cell viability assay.

[2] = test system: CTB-1; type: functional, cell-based; conditions: Homo sapiens
Description: SANGER: Inhibition of human CTB-1 cell growth in a cell viability assay.

[3] = test system: CW-2; type: functional, cell-based, Homo sapiens; conditions: Homo sapiens, CW-2;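 note: growth inhibition of CW-2 cells, read out by a cell viability assay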
Description: SANGER: Inhibition of human CW-2 cell growth in a cell viability assay.

[4] = test system: DMS-114; type: functional, cell-based, Homo sapiens; conditions: Homo sapiens, DMS-114
[5] = test system: ETK-1; type: functional, cell-based, Homo sapiens; conditions: Homo sapiens, ETK-1;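 note: growth inhibition of human ETK-1 cells, read out with a cell viability assay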
Description: SANGER: Inhibition of human ETK-1 cell growth in a cell viability assay.

[6] = test system: EW-18; type: functional, cell-based; conditions: Homo sapiens;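 note: growth inhibition of EW-18 cells, read out by a cell viability assay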
Description: SANGER: Inhibition of human EW-18 cell growth in a cell viability assay.

[7] = test system: FaDu; type: functional, cell-based, Homo sapiens; conditions: Homo sapiens, FaDu;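 note: cell viability readout of growth inhibition in FaDu cells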
Description: SANGER: Inhibition of human FADU cell growth in a cell viability assay.

[8] = test system: HCC1419; type: functional, cell-based, Homo sapiens; conditions: Homo sapiens, HCC1419;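 note: growth inhibition of human HCC1419 cells, read out as cell viability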
Description: SANGER: Inhibition of human HCC1419 cell growth in a cell viability assay.

[9] = test system: HCC1954; type: functional, cell-based, Homo sapiens; conditions: Homo sapiens, HCC1954;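 note: growth inhibition of human HCC1954 cells, read out with a cell viability assay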
Description: SANGER: Inhibition of human HCC1954 cell growth in a cell viability assay.

[10] = test system: HCC38; type: functional, cell-based, Homo sapiens; conditions: Homo sapiens, HCC38;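 note: cell viability assay on the human HCC38 cell line, with IC50 marking the concentration that inhibits cell growth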
Description: SANGER: Inhibition of human HCC38 cell growth in a cell viability assay.

[11] = test system: Hs-578T; type: functional, cell-based, Homo sapiens; conditions: Homo sapiens, Hs-578T
Description: SANGER: Inhibition of human Hs-578-T cell growth in a cell viability assay.

[12] = test system: HuP-T4; type: functional, cell-based, Homo sapiens; conditions: Homo sapiens, HuP-T4;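 note: cell viability assay measuring how much HuP-T4 cell growth is inhibited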
Description: SANGER: Inhibition of human HuP-T4 cell growth in a cell viability assay.

[13] = test system: KMOE-2; type: functional, cell-based; conditions: Homo sapiens;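 note: growth inhibition of human KMOE-2 cells, read out with a cell viability assay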
Description: SANGER: Inhibition of human KMOE-2 cell growth in a cell viability assay.

[14] = test system: LU-134-A; type: functional, cell-based; conditions: Homo sapiens
Description: SANGER: Inhibition of human LU-134-A cell growth in a cell viability assay.

[15] = test system: M14; type: functional, cell-based, Homo sapiens; conditions: Homo sapiens, M14;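 note: growth inhibition of M14 cells, read out with a cell viability assay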
Description: SANGER: Inhibition of human M14 cell growth in a cell viability assay.

[16] = test system: MCF7; type: functional, cell-based, Homo sapiens; conditions: Homo sapiens, MCF7;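 note: growth inhibition of human MCF7 cells, read out with a cell viability assay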
Description: SANGER: Inhibition of human MCF7 cell growth in a cell viability assay.

[17] = test system: MS-1; type: functional, cell-based; conditions: Homo sapiens;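 note: growth inhibition of MS-1 cells, read out by cell viability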
Description: SANGER: Inhibition of human MS-1 cell growth in a cell viability assay.

[18] = test system: NB10; type: functional, cell-based, Homo sapiens; conditions: Homo sapiens, NB10;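 note: growth inhibition of NB10 cells, read out by a cell viability assay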
Description: SANGER: Inhibition of human NB10 cell growth in a cell viability assay.

[19] = test system: NB13; type: functional, cell-based, Homo sapiens; conditions: Homo sapiens, NB13;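 note: cell viability readout measuring growth inhibition of human NB13 cells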
Description: SANGER: Inhibition of human NB13 cell growth in a cell viability assay.

[20] = test system: NB5; type: functional, cell-based, Homo sapiens; conditions: Homo sapiens, NB5;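 note: growth inhibition of NB5 cells, read out as cell viability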
Description: SANGER: Inhibition of human NB5 cell growth in a cell viability assay.

[21] = test system: NB6; type: functional, cell-based, Homo sapiens; conditions: Homo sapiens, NB6;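 note: growth inhibition of NB6 cells, read out by a cell viability assay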
Description: SANGER: Inhibition of human NB6 cell growth in a cell viability assay.

[22] = test system: NCI-H1299; type: functional, cell-based, Homo sapiens; conditions: Homo sapiens, NCI-H1299;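 note: growth inhibition of human NCI-H1299 cells, read out by a cell viability assay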
Description: SANGER: Inhibition of human NCI-H1299 cell growth in a cell viability assay.

[23] = test system: NCI-H1437; type: functional, cell-based, Homo sapiens; conditions: Homo sapiens, NCI-H1437;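 note: growth inhibition of human NCI-H1437 cells, read out by a cell viability assay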
Description: SANGER: Inhibition of human NCI-H1437 cell growth in a cell viability assay.

[24] = test system: NCI-H1581; type: functional, cell-based, Homo sapiens; conditions: Homo sapiens, NCI-H1581;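 note: cell growth inhibition read out by a viability assay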
Description: SANGER: Inhibition of human NCI-H1581 cell growth in a cell viability assay.

[25] = test system: NCI-H2347; type: functional, cell-based, Homo sapiens; conditions: Homo sapiens, NCI-H2347;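 note: growth inhibition of the cell line, read out with a cell viability assay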
Description: SANGER: Inhibition of human NCI-H2347 cell growth in a cell viability assay.

[26] = test system: NCI-H661; type: functional, cell-based, Homo sapiens; conditions: Homo sapiens, NCI-H661;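 note: cell viability assay read-out, IC50 being the concentration that inhibits growth of the cells by half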
Description: SANGER: Inhibition of human NCI-H661 cell growth in a cell viability assay.

[27] = test system: NCI-H727; type: functional, cell-based, Homo sapiens; conditions: Homo sapiens, NCI-H727;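 note: growth inhibition of human NCI-H727 cells, read out with a cell viability assay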
Description: SANGER: Inhibition of human NCI-H727 cell growth in a cell viability assay.

[28] = test system: NOS-1; type: functional, cell-based, Homo sapiens; conditions: Homo sapiens, NOS-1;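 note: growth inhibition of the human NOS-1 cell line, read out with a cell viability assay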
Description: SANGER: Inhibition of human NOS-1 cell growth in a cell viability assay.

[29] = test system: NUGC-3; type: functional, cell-based, Homo sapiens; conditions: Homo sapiens, NUGC-3;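 note: growth inhibition of human NUGC-3 cells, read out with a cell viability assay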
Description: SANGER: Inhibition of human NUGC-3 cell growth in a cell viability assay.

[30] = test system: PANC-08-13; type: functional, cell-based, Homo sapiens; conditions: Homo sapiens, PANC-08-13;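 note: cell growth inhibition, measured with a cell viability assay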
Description: SANGER: Inhibition of human PANC-08-13 cell growth in a cell viability assay.

[31] = test system: PC-3; type: functional, cell-based, Homo sapiens; conditions: Homo sapiens, PC-3;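 note: cell viability assay measuring growth inhibition of PC-3 cells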
Description: SANGER: Inhibition of human PC-3 cell growth in a cell viability assay.

[32] = test system: RCC10RGB; type: functional, cell-based, Homo sapiens; conditions: Homo sapiens, RCC10RGB;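 note: growth inhibition of human RCC10RGB cells, read out by a cell viability assay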
Description: SANGER: Inhibition of human RCC10RGB cell growth in a cell viability assay.

[33] = test system: RD; type: functional, cell-based, Homo sapiens; conditions: Homo sapiens, RD
Description: SANGER: Inhibition of human RD cell growth in a cell viability assay.

[34] = test system: RS4-11; type: functional, cell-based; conditions: Homo sapiens;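 note: growth inhibition of RS4-11 cells, read out by a cell viability assay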
Description: SANGER: Inhibition of human RS4-11 cell growth in a cell viability assay.

[35] = test system: SBC-5; type: functional, cell-based, Homo sapiens; conditions: Homo sapiens, SBC-5;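 note: cell viability assay read-out, IC50 is the concentration that inhibits growth of the cells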
Description: SANGER: Inhibition of human SBC-5 cell growth in a cell viability assay.

[36] = test system: SK-MEL-28; type: functional, cell-based; conditions: Homo sapiens;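 note: growth inhibition of human SK-MEL-28 cells, read out with a cell viability assay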
Description: SANGER: Inhibition of human SK-MEL-28 cell growth in a cell viability assay.

[37] = test system: SK-PN-DW; type: functional, cell-based; conditions: Homo sapiens;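 note: growth inhibition measured with a viability assay on these cells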
Description: SANGER: Inhibition of human SK-PN-DW cell growth in a cell viability assay.

[38] = test system: SW1710; type: functional, cell-based, Homo sapiens; conditions: Homo sapiens, SW1710;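 note: growth inhibition of SW1710 cells, determined with a cell viability assay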
Description: SANGER: Inhibition of human SW1710 cell growth in a cell viability assay.

[39] = test system: SW 954; type: functional, cell-based, Homo sapiens; conditions: Homo sapiens, SW 954;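 note: growth inhibition of SW954 human cancer cells, read out as cell viability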
Description: SANGER: Inhibition of human SW954 cell growth in a cell viability assay.

[40] = test system: A204; type: functional, cell-based, Homo sapiens; conditions: Homo sapiens, A204;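 note: growth inhibition of human A204 cells, read out with a cell viability assay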
Description: SANGER: Inhibition of human A204 cell growth in a cell viability assay.

[41] = test system: A-427; type: functional, cell-based, Homo sapiens; conditions: Homo sapiens, A-427;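 note: growth inhibition of human A-427 cells, read out by a cell viability assay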
Description: SANGER: Inhibition of human A427 cell growth in a cell viability assay.

[42] = test system: ALL-PO; type: functional, cell-based; conditions: Homo sapiens;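 note: growth inhibition of ALL-PO cells, read out by a cell viability assay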
Description: SANGER: Inhibition of human ALL-PO cell growth in a cell viability assay.

[43] = test system: BE-13; type: functional, cell-based; conditions: Homo sapiens;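 note: growth inhibition of human BE-13 cells, measured with a cell viability assay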
Description: SANGER: Inhibition of human BE-13 cell growth in a cell viability assay.

[44] = test system: CAL-120; type: functional, cell-based, Homo sapiens; conditions: Homo sapiens, CAL-120;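 note: cell growth inhibition, read out as cell viability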
Description: SANGER: Inhibition of human CAL-120 cell growth in a cell viability assay.

[45] = test system: CAL-72; type: functional, cell-based, Homo sapiens; conditions: Homo sapiens, CAL-72;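 note: cell viability assay measuring inhibition of proliferation in the CAL-72 cell line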
Description: SANGER: Inhibition of human CAL-72 cell growth in a cell viability assay.

[46] = test system: TE-9; type: functional, cell-based, Homo sapiens; conditions: Homo sapiens, TE-9;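 note: cell growth inhibition, measured with a cell viability readout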
Description: SANGER: Inhibition of human TE-9 cell growth in a cell viability assay.

[47] = test system: U-266; type: functional, cell-based; conditions: Homo sapiens
Description: SANGER: Inhibition of human U-266 cell growth in a cell viability assay.

[48] = test system: UO-31; type: functional, cell-based; conditions: Homo sapiens;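 note: cell viability assay measuring inhibition of cell growth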
Description: SANGER: Inhibition of human U031 cell growth in a cell viability assay.

[49] = test system: U-251; type: functional, cell-based, Homo sapiens; conditions: Homo sapiens, U-251;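 note: growth inhibition of human U-251 cells, read out through a cell viability assay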
Description: SANGER: Inhibition of human U251 cell growth in a cell viability assay.

[50] = test system: UACC-62; type: functional, cell-based, Homo sapiens; conditions: Homo sapiens, UACC-62;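 note: growth inhibition of human UACC-62 cells, read out by a cell viability assay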
Description: SANGER: Inhibition of human UACC-62 cell growth in a cell viability assay.

[51] = test system: no-11; type: functional, cell-based, Homo sapiens; conditions: Homo sapiens;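 note: growth inhibition of human NO-11 cells, read out with a cell viability assay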
Description: SANGER: Inhibition of human no-11 cell growth in a cell viability assay.

[52] = test system: CCRF-CEM; type: functional, cell-based; conditions: Homo sapiens;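 note: inhibition of CCRF-CEM cell growth, measured by a cell viability assay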
Description: SANGER: Inhibition of human CCRF-CEM cell growth in a cell viability assay.

[53] = test system: CGTH-W-1; type: functional, cell-based, Homo sapiens; conditions: Homo sapiens, CGTH-W-1;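 note: growth inhibition of human CGTH-W-1 cells measured by cell viability assay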
Description: SANGER: Inhibition of human CGTH-W-1 cell growth in a cell viability assay.

Q: What does the source list for `CCC1=C[C@@H]2CN(C1)Cc1c([nH]c3ccccc13)[C@@](C(=O)OC)(c1cc3c(cc1OC)N(C)[C@H]1[C@@](O)(C(=O)OC)[C@H](OC(C)=O)[C@]4(CC)C=CCN5CC[C@]31[C@@H]54)C2` [VINORELBINE]?
A: pIC50 [1]: 7.51; pIC50 [2]: 7.70; pIC50 [3]: < 7.19; pIC50 [4]: < 7.19; pIC50 [5]: 8.16; pIC50 [6]: 8.15; pIC50 [7]: 7.31; pIC50 [8]: < 7.19; pIC50 [9]: 8.00; pIC50 [10]: 8.31; pIC50 [11]: < 7.19; pIC50 [12]: 7.43; pIC50 [13]: < 7.19; pIC50 [14]: 7.33; pIC50 [15]: 7.68; pIC50 [16]: 8.30; pIC50 [17]: < 7.19; pIC50 [18]: < 7.19; pIC50 [19]: 8.30; pIC50 [20]: < 7.19; pIC50 [21]: < 7.19; pIC50 [22]: 7.87; pIC50 [23]: 8.15; pIC50 [24]: 7.43; pIC50 [25]: 7.58; pIC50 [26]: 7.69; pIC50 [27]: < 7.19; pIC50 [28]: 7.38; pIC50 [29]: 8.22; pIC50 [30]: 7.33; pIC50 [31]: < 7.19; pIC50 [32]: < 7.19; pIC50 [33]: 8.27; pIC50 [34]: 8.10; pIC50 [35]: 8.68; pIC50 [36]: < 7.19; pIC50 [37]: 7.90; pIC50 [38]: 8.63; pIC50 [39]: 8.22; pIC50 [40]: 8.49; pIC50 [41]: 8.51; pIC50 [42]: 8.47; pIC50 [43]: 7.91; pIC50 [44]: 7.36; pIC50 [45]: < 7.19; pIC50 [46]: 8.97; pIC50 [47]: 7.76; pIC50 [48]: < 7.19; pIC50 [49]: 8.16; pIC50 [50]: 7.48; pIC50 [51]: < 7.19; pIC50 [52]: 8.34; pIC50 [53]: 9.64

From ChEMBL document CHEMBL1201861, “Genomics of Drug Sensitity in Cancer screening data, Wellcome Trust Sanger Institute”
